compound: CC1CC(=O)N(C2=CN=C(N=C2N1C3CCCC3)NC4=C(C=C(C=C4)C(=O)NC5CCN(CC5)C)OC)C [NPK76-II-72-1] + CS(=O)(=O)CCNCc1ccc(-c2ccc3ncnc(Nc4ccc(OCc5cccc(F)c5)c(Cl)c4)c3c2)o1 [Lapatinib] (partner 2 µM); assay: relative viability (nuclei count vs DMSO), 5 days (fraction); higher = more cells survive; details: first compound 0.01 µM
Outline: (§1)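 Lung cancer cell lines in 1536-well plates were dosed by pin tool the day after seeding, either with one drug alone or with a fixed anchor-drug dose plus five library-drug doses (not always all listed) in √10 steps. After 5 days, cells were fixed and their nuclei stained in one step (final 0.05% Triton X-100, 1% formaldehyde, 1 ug/ml Hoechst), then counted on 4× images. Relative viability is the nuclei count in treated wells divided by that in vehicle wells. Values are medians of duplicate plates.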

Cell Line | relative viability
NCI-H1915 | 0.931
HCC-827 | 0.194
LXF-289 | 0.881
NCI-H23 | 1.03
NCI-H647 | 0.932
CAL-12T | 0.571
NCI-H1651 | 0.835
EPLC-272H | 0.905
NCI-H2228 | 0.88
NCI-H1792 | 0.894
NCI-H1355 | 0.922
NCI-H3122 | 1.02
NCI-H1437 | 0.769
NCI-H1755 | 0.958
NCI-H2023 | 0.813
HCC-15 | 0.85
PC-14 | 0.321
EKVX | 0.206
LC-2-ad | 0.916
NCI-H1563 | 0.976
NCI-H1944 | 0.81
NCI-H1975 | 0.813
RERF-LC-KJ | 0.818
ABC-1 | 1.02
NCI-H358 | 0.444
NCI-H650 | 1.17
PC-3 [JPC-3] | 0.479

same assay, conditions: first compound 0.03162 µM

Cell Line | relative viability
NCI-H1915 | 1.07
HCC-827 | 0.211
LXF-289 | 0.91
NCI-H23 | 1.27
NCI-H647 | 1.01
CAL-12T | 0.749
NCI-H1651 | 0.928
EPLC-272H | 0.968
NCI-H2228 | 1.04
NCI-H1792 | 0.965
NCI-H1355 | 0.933
NCI-H3122 | 1.03
NCI-H1437 | 0.884
NCI-H1755 | 0.978
NCI-H2023 | 1.06
HCC-15 | 0.879
PC-14 | 0.269
EKVX | 0.193
LC-2-ad | 1.02
NCI-H1563 | 1.03
NCI-H1944 | 0.808
NCI-H1975 | 0.878
RERF-LC-KJ | 0.869
ABC-1 | 1.19
NCI-H358 | 0.443
NCI-H650 | 0.912
PC-3 [JPC-3] | 0.453

same assay, conditions: first compound 0.1 µM

Cell Line | relative viability
NCI-H1915 | 1.01
HCC-827 | 0.173
LXF-289 | 0.891
CAL-12T | 0.632
NCI-H1651 | 0.905
EPLC-272H | 1.01
NCI-H2228 | 1.13
NCI-H1792 | 0.923
NCI-H1355 | 0.967
NCI-H3122 | 0.966
NCI-H1437 | 0.743
NCI-H1755 | 0.994
NCI-H2023 | 1.13
HCC-15 | 0.787
PC-14 | 0.28
EKVX | 0.22
LC-2-ad | 0.976
NCI-H1563 | 0.946
NCI-H1944 | 0.904
NCI-H1975 | 0.928
RERF-LC-KJ | 0.841
ABC-1 | 1.18
NCI-H358 | 0.549
NCI-H650 | 0.723
PC-3 [JPC-3] | 0.448

same assay, conditions: first compound 0.3162 µM

Cell Line | relative viability
NCI-H1915 | 0.881
HCC-827 | 0.171
LXF-289 | 0.934
NCI-H23 | 1.12
NCI-H647 | 0.916
NCI-H1651 | 0.807
EPLC-272H | 1.04
NCI-H2228 | 1.15
NCI-H1792 | 0.964
NCI-H1355 | 0.931
NCI-H3122 | 1.1
NCI-H1437 | 0.716
NCI-H1755 | 1.02
NCI-H2023 | 0.878
HCC-15 | 0.749
PC-14 | 0.301
EKVX | 0.222
LC-2-ad | 1.04
NCI-H1563 | 0.942
NCI-H1944 | 0.825
NCI-H1975 | 0.886
RERF-LC-KJ | 0.818
ABC-1 | 1.08
NCI-H358 | 0.453
PC-3 [JPC-3] | 0.463

same assay, conditions: first compound 1 µM

Cell Line | relative viability
NCI-H1915 | 0.897
HCC-827 | 0.224
LXF-289 | 0.889
NCI-H23 | 0.985
NCI-H647 | 1.01
CAL-12T | 0.777
NCI-H1651 | 0.837
EPLC-272H | 1.11
NCI-H2228 | 0.874
NCI-H1792 | 1.01
NCI-H1355 | 1.02
NCI-H3122 | 1.04
NCI-H1437 | 0.818
NCI-H1755 | 1.11
NCI-H2023 | 1.02
HCC-15 | 0.895
PC-14 | 0.338
EKVX | 0.236
LC-2-ad | 1.06
NCI-H1563 | 1.02
NCI-H1944 | 0.71
NCI-H1975 | 0.955
RERF-LC-KJ | 0.979
ABC-1 | 1.31
NCI-H358 | 0.477
NCI-H650 | 0.925
PC-3 [JPC-3] | 0.439

compound: CC1CC(=O)N(C2=CN=C(N=C2N1C3CCCC3)NC4=C(C=C(C=C4)C(=O)NC5CCN(CC5)C)OC)C [NPK76-II-72-1] + C[C@@H](Oc1cc(-c2cnn(C3CCNCC3)c2)cnc1N)c1c(Cl)ccc(F)c1Cl [Crizotinib] (partner 1 µM); assay: as above; details: first compound 0.01 µM
Outline: as §1

Cell Line | relative viability
NCI-H1915 | 0.87
